Measured values taken from patent publication US20030166645A1, “Novel nitrofuran-containing heterocyclic compounds and uses thereof” (priority 2001, published 2003).
Converted amounts (≈) assume the structure as drawn.

What was measured:
Experiment in all cases: Microdilution antimicrobial susceptibility test (MIC)
Type in all cases: cell-based
E faecalis = details: broth microdilution, 18-24 h, MIC = 90% inhibition of growth; for MIC: read-out: MIC E faecalis MIC2
P aeruginosa = details: broth microdilution, 18-24 h, MIC = 90% inhibition of growth
E coli = details: broth microdilution, 18-24 h, MIC = 90% inhibition of growth; for MIC: read-out: MIC E coli MIC2
S cerevisiae = details: broth microdilution, 18-24 h, MIC = 90% inhibition of growth; for MIC: read-out: MIC S cerevisiae MIC7
H influenzae = details: broth microdilution, 18-24 h, MIC = 90% inhibition of growth; for MIC: read-out: MIC H influenzae MIC4
S pneumoniae = details: broth microdilution, 18-24 h, CO2-enriched atmosphere, MIC = 90% inhibition of growth; for MIC: read-out: MIC S pneumoniae MIC6
M. catarrhalis = details: broth microdilution, 18-24 h, MIC = 90% inhibition of growth; for MIC: Moraxella catarrhalis, read-out: MIC M. catarrhalis MIC2
S aureus = details: broth microdilution, 18-24 h, MIC = 90% inhibition of growth; for MIC: read-out: MIC S aureus MIC2
E coli (ImpA) = details: broth microdilution, 18-24 h, MIC = 90% inhibition of growth; for MIC: read-out: MIC E coli (ImpA) MIC9
Procedure: Microdilution Antimicrobial Susceptibility Test Assay
Stock solutions of tested compounds were prepared in N,N-dimethylformamide (DMF) at a concentration of 5 mg/mL. Working solutions of the tested compounds were then prepared from the stock solutions, in Mueller-Hinton broth (MHB) with a starting concentration of 64 μg/mL.
Bacterial inocula were prepared from overnight culture (i.e., one fresh colony from agar plate in 5 ml MHB; H. influenzae was grown in MHB with the addition of yeast extract, haematin, and NAD), centrifuged 2×5 min/3000 rpm (for S. pneumoniae and H. influenzae, 2×10 min/3000 rpm), and dispensed in 5 ml of fresh MHB each time, such that the bacterial suspension is diluted to obtain 100 colony forming units (cfu) in a microplate well (100 μl total volume).
Microplate wells were filled with two-fold dilutions of test compound (50 Al), starting with 64 μg/ml. Wells were then filled with 50 μl of bacterial inoculum (final volume: 100 μl/well). The plates were incubated at 37° C. for 18-24 hours (S. pneumoniae was grown in a CO2-enriched atmosphere).

CNS(=O)(=O)c1nnc(-c2ccc([N+](=O)[O-])o2)n1C [Compound 106, 5-[2-(5-Nitro)furyl]-4-methyl-4H-1,2,4-triazole-3-methyl Sulfonamide]
MIC (E faecalis): > 64 µg/mL
MIC (P aeruginosa; read-out: MIC P aeruginosa MIC2): > 64 µg/mL
MIC (E coli): 8 µg/mL (≈ 27.8 µM)
MIC (S cerevisiae): 64 µg/mL (≈ 223 µM)
MIC (H influenzae): 32 µg/mL (≈ 111 µM)
MIC (S pneumoniae): 64 µg/mL (≈ 223 µM)
MIC (M. catarrhalis): 2 µg/mL (≈ 6.96 µM)
MIC (S aureus): > 64 µg/mL
MIC (E coli (ImpA)): 4 µg/mL (≈ 13.9 µM)

Nn1c(S)nnc1-c1ccc([N+](=O)[O-])o1 [Compound 110]
MIC (E faecalis): > 128 µg/mL
MIC (E coli): 16 µg/mL (≈ 70.4 µM)
MIC (S cerevisiae): 64 µg/mL (≈ 282 µM)
MIC (H influenzae): 8 µg/mL (≈ 35.2 µM)
MIC (S pneumoniae): 32 µg/mL (≈ 141 µM)
MIC (M. catarrhalis): 32 µg/mL (≈ 141 µM)
MIC (S aureus): 32 µg/mL (≈ 141 µM)

Cn1c(SCCCO)nnc1-c1ccc([N+](=O)[O-])o1 [Compound 116, 5-[2-(5-Nitro)furyl]-4-methyl-4H-1,2,4-triazole-3-(3-hydroxypropyl)-thiol]
MIC (E faecalis): 8 µg/mL (≈ 28.1 µM)
MIC (E coli): 8 µg/mL (≈ 28.1 µM)
MIC (S cerevisiae): > 64 µg/mL
MIC (H influenzae): 16 µg/mL (≈ 56.3 µM)
MIC (S pneumoniae): 8 µg/mL (≈ 28.1 µM)
MIC (M. catarrhalis): 0.5 µg/mL (≈ 1.76 µM)
MIC (S aureus): 8 µg/mL (≈ 28.1 µM)
MIC (E coli (ImpA)): 1 µg/mL (≈ 3.52 µM)

O=[N+]([O-])c1ccc(-c2nnc(S)[nH]2)o1 [Compound 117]
MIC (E faecalis): 32 µg/mL (≈ 151 µM)
MIC (E coli): > 64 µg/mL
MIC (S cerevisiae): > 64 µg/mL
MIC (H influenzae): 8 µg/mL (≈ 37.7 µM)
MIC (S pneumoniae): 2 µg/mL (≈ 9.43 µM)
MIC (M. catarrhalis): 2 µg/mL (≈ 9.43 µM)
MIC (S aureus): 64 µg/mL (≈ 302 µM)
MIC (E coli (ImpA)): 16 µg/mL (≈ 75.4 µM)

O=[N+]([O-])c1ccc(-c2nnc(S)n2CCCN2CCOCC2)o1 [Compound 120]
MIC E faecalis MIC2 (E faecalis): 64 µg/mL (≈ 189 µM)
MIC E coli MIC2 (E coli): >64 µg/mL
MIC S cerevisiae MIC7 (S cerevisiae): 64 µg/mL (≈ 189 µM)
MIC H influenzae MIC4 (H influenzae): 16 µg/mL (≈ 47.1 µM)
MIC S pneumoniae MIC6 (S pneumoniae): 16 µg/mL (≈ 47.1 µM)
MIC M. catarrhalis MIC2 (M. catarrhalis): 2 µg/mL (≈ 5.89 µM)
MIC S aureus MIC2 (S aureus): 64 µg/mL (≈ 189 µM)
MIC E coli (ImpA) MIC9 (E coli (ImpA)): 32 µg/mL (≈ 94.3 µM)

Cn1c(SCC#N)nnc1-c1ccc([N+](=O)[O-])o1 [Compound 121]
MIC E faecalis MIC2 (E faecalis): 64 µg/mL (≈ 241 µM)
MIC E coli MIC2 (E coli): 8 µg/mL (≈ 30.2 µM)
MIC S cerevisiae MIC7 (S cerevisiae): >64 µg/mL
MIC H influenzae MIC4 (H influenzae): 16 µg/mL (≈ 60.3 µM)
MIC S pneumoniae MIC6 (S pneumoniae): 16 µg/mL (≈ 60.3 µM)
MIC M. catarrhalis MIC2 (M. catarrhalis): 1 µg/mL (≈ 3.77 µM)
MIC S aureus MIC2 (S aureus): 16 µg/mL (≈ 60.3 µM)
MIC E coli (ImpA) MIC9 (E coli (ImpA)): 2 µg/mL (≈ 7.54 µM)

Cn1c(-c2ccc([N+](=O)[O-])o2)nnc1S(=O)(=O)Nc1ccccc1 [Compound 123]
MIC E faecalis MIC2 (E faecalis): 64 µg/mL (≈ 183 µM)
MIC P aeruginosa MIC2 (P aeruginosa): >64 µg/mL
MIC E coli MIC2 (E coli): >64 µg/mL
MIC S cerevisiae MIC7 (S cerevisiae): >64 µg/mL
MIC H influenzae MIC4 (H influenzae): 16 µg/mL (≈ 45.8 µM)
MIC S pneumoniae MIC6 (S pneumoniae): 8 µg/mL (≈ 22.9 µM)
MIC M. catarrhalis MIC2 (M. catarrhalis): 1 µg/mL (≈ 2.86 µM)
MIC S aureus MIC2 (S aureus): 64 µg/mL (≈ 183 µM)
MIC E coli (ImpA) MIC9 (E coli (ImpA)): 16 µg/mL (≈ 45.8 µM)

CSc1nnc(-c2ccc([N+](=O)[O-])o2)n1C [Compound 124]
MIC (E faecalis): 32 µg/mL (≈ 133 µM)
MIC (E coli): 64 µg/mL (≈ 266 µM)
MIC (S cerevisiae): 16 µg/mL (≈ 66.6 µM)
MIC (H influenzae): 8 µg/mL (≈ 33.3 µM)
MIC (S pneumoniae): 8 µg/mL (≈ 33.3 µM)
MIC (M. catarrhalis): 1 µg/mL (≈ 4.16 µM)
MIC (S aureus): 16 µg/mL (≈ 66.6 µM)
MIC (E coli (ImpA)): 2 µg/mL (≈ 8.32 µM)

CCn1c(S)nnc1-c1ccc([N+](=O)[O-])o1 [Compound 126]
MIC (E faecalis): 64 µg/mL (≈ 266 µM)
MIC (E coli): > 64 µg/mL
MIC (S cerevisiae): > 64 µg/mL
MIC (H influenzae): 32 µg/mL (≈ 133 µM)
MIC (S pneumoniae): 16 µg/mL (≈ 66.6 µM)
MIC (M. catarrhalis): 4 µg/mL (≈ 16.6 µM)
MIC (S aureus): > 64 µg/mL

Cn1c(SCc2ccncc2)nnc1-c1ccc([N+](=O)[O-])o1 [Compound 129]
MIC E faecalis MIC2 (E faecalis): 64 µg/mL (≈ 202 µM)
MIC E coli MIC2 (E coli): 64 µg/mL (≈ 202 µM)
MIC S cerevisiae MIC7 (S cerevisiae): >64 µg/mL
MIC H influenzae MIC4 (H influenzae): 16 µg/mL (≈ 50.4 µM)
MIC S pneumoniae MIC6 (S pneumoniae): 16 µg/mL (≈ 50.4 µM)
MIC M. catarrhalis MIC2 (M. catarrhalis): 0.5 µg/mL (≈ 1.58 µM)
MIC S aureus MIC2 (S aureus): 16 µg/mL (≈ 50.4 µM)
MIC E coli (ImpA) MIC9 (E coli (ImpA)): 4 µg/mL (≈ 12.6 µM)
